Experimental data as given in publication PMC10471714, “G6PDi-1 is a Potent Inhibitor of G6PDH and of Pentose Phosphate pathway-dependent Metabolic Processes in Cultured Primary Astrocytes” (Neurochemical Research, 2023).

How the values were obtained:
[1] = biological target: T1, G6PDH (glucose-6-phosphate dehydrogenase) (Rattus norvegicus, UniProt P05370); experiment: NADPH absorbance at […] nm in astrocyte lysate; type: biochemical; conditions: 3.3 mM G6P, 0.2 mM NADP+, 6.3 mM MgCl2, 5 mM maleimide, pH 7.5, room temperature; read-out: half-maximal inhibition
T1 construct: gene G6pdx; native cytosolic enzyme in soluble lysate supernatant of primary astrocyte-rich cultures; not purified

[2] = biological target: T2, 6PGDH (6-phosphogluconate dehydrogenase) (Rattus norvegicus, UniProt P85968); experiment: NADPH absorbance at […] nm in astrocyte lysate; type: biochemical
T2 construct: gene Pgd; native cytosolic enzyme in soluble lysate supernatant of primary astrocyte-rich cultures; not purified
T2 sequence (P85968 2-483): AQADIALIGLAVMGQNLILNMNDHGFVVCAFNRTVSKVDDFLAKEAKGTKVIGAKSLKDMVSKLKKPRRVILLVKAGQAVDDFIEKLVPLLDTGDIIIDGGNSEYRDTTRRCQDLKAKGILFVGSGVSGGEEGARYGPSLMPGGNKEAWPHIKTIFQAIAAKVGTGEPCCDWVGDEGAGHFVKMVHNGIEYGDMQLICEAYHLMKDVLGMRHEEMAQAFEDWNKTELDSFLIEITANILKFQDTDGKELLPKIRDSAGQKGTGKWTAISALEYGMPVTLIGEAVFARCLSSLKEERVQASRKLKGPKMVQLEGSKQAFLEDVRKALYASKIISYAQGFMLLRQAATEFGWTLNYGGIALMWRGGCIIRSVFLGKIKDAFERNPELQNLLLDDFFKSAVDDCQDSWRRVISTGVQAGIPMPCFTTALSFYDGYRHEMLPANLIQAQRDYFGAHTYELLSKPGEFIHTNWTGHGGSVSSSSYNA

T1 sequence (P05370 2-515): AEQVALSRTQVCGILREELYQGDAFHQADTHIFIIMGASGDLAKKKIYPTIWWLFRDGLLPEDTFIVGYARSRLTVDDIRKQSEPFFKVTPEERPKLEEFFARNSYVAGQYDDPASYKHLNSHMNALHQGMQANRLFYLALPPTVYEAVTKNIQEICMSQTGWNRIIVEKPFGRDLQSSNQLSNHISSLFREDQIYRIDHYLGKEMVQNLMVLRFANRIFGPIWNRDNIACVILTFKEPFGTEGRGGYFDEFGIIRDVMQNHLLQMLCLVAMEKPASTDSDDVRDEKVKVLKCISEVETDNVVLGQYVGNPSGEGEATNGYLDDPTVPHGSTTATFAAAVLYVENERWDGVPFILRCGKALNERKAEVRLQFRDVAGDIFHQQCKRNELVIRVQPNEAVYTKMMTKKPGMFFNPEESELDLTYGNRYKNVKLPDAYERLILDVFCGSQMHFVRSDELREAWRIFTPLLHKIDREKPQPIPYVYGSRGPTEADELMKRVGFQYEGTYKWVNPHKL

Row | IC50 [1] | inhibition at 100 µM [2] | SMILES
1 | 9.2 ± 3.5 µM | – | C[C@]12CC[C@H](O)CC1=CC[C@@H]1[C@@H]2CC[C@]2(C)C(=O)CC[C@@H]12 [DHEA]
2 | – | 15% | N#Cc1cc(Nc2ncc3c(n2)CCCCC3=O)cs1 [G6PDi-1]
